Experimental data as given in US20050239873A1 (priority 1999, published 2005).

Key:
Bcl-xL(ΔC) E92L [1] = target: T1, Bcl-xL(ΔC) E92L (Homo sapiens, UniProt Q07817, E92L); assay: Fluorescence anisotropy binding; conditions: AA1 200 nM or FITC-labeled BH3 peptide 25 nM; read-out: Dissociation Constant KD
T1 construct: inferred from Ni-NTA purification and the pET22b(+) NdeI/XhoI cloning); made in house; host or cells: Escherichia coli BL21(DE3) carrying pUB520
Description: (§1) A pET22b (Novagen) vector coding for BCl-xL(ΔC), a mutant Bcl-xL protein without the COOH terminal region, was transformed into Escherichia coli BL21(DE3) cells that carried pUB520 (encoding human Arg tRNA) and grown to an A600 of 0.6. Protein expression was induced with 0.1 mM isopropyl β-D-thiogalactoside at 30° C. The cells were resuspended 1:5 (w/v) in PEB buffer (50 mM Tris, pH 8.0, 200 mM NaCl, 0.2 mM phenylmethylsulfonyl fluoride, 5 mM β-mercaptoethanol, 5 mM imidazole, and 1% (v/v) glycerol), and stirred for 20 min at 4° C. Cells were disrupted by pulse sonication, and the soluble fraction was loaded onto a nickel-nitrilotriacetic acid column (Qiagen) equilibrated with PEB buffer. The column was washed with 40 mM imidazole, eluted with 200 mM imidazole, and the protein fractions were pooled and dialyzed (50 mM Tris, pH 8.0, 200 mM NaCl, 0.2 mM phenylmethylsulfonyl fluoride) at 4° C. overnight. The dialyzed protein was concentrated to 10 mg/ml and fractionated on a Superdex 75 gel filtration column (Amersham Biosciences). The fractions containing Bcl-xL(ΔC) protein were pooled, exchanged into low-salt buffer (same as for previous dialysis buffer, except 50 mM NaCI), and loaded onto a MonoQ anion exchange column (Amersham Biosciences). Protein was eluted from the column with increasing NaCl gradient, pooled and concentrated.
(§2) All reagents were prepared in 0.2 μm-filtered PBS with fresh 1 mM DTT. […] Slit widths were set at 10 nm for both excitation and emission.

Bcl-xL(ΔC) F97W [2] = target: T2, Bcl-xL(ΔC) F97W (Homo sapiens, UniProt Q07817, F97W); assay: Fluorescence anisotropy binding
T2 construct: inferred from Ni-NTA purification and the pET22b(+) NdeI/XhoI cloning); made in house; host or cells: Escherichia coli BL21(DE3) carrying pUB520
T2 sequence (Q07817 1-211 F97W limits assumed): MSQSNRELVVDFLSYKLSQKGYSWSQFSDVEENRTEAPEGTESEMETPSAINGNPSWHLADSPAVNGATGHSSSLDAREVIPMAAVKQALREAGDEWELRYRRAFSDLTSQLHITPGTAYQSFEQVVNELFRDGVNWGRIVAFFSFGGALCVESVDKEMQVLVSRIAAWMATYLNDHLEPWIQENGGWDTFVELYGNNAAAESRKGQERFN
Description: as §1, §2

Bcl-xL(ΔC) A142L [3] = target: T3, Bcl-xL(ΔC) A142L (Homo sapiens, UniProt Q07817, A142L); assay: Fluorescence anisotropy binding
T3 construct: inferred from Ni-NTA purification and the pET22b(+) NdeI/XhoI cloning); made in house; host or cells: Escherichia coli BL21(DE3) carrying pUB520
T3 sequence (Q07817 1-211 A142L limits assumed): as the sequence (Q07817 1-211 F97W limits assumed) above, with W97F, A142L counted along it
Description: as §1, §2

Bcl-xL(ΔC) WT [4] = target: T4, Bcl-xL(ΔC) WT (Homo sapiens, UniProt Q07817); assay: Fluorescence anisotropy binding; conditions: AA1 200 nM or FITC-labeled BH3 peptide 25 nM; read-out: Dissociation Constant KD
T4 construct: inferred from Ni-NTA purification and the pET22b(+) NdeI/XhoI cloning); made in house; host or cells: Escherichia coli BL21(DE3) carrying pUB520
T4 sequence (Q07817 1-211 limits assumed, stated change not applied): as the sequence (Q07817 1-211 F97W limits assumed) above, with W97F counted along it
Description: as §1, §2

Bcl-xL(ΔC) F146L [5] = target: T5, Bcl-xL(ΔC) F146L (Homo sapiens, UniProt Q07817, F146L); assay: Fluorescence anisotropy binding
T5 construct: inferred from Ni-NTA purification and the pET22b(+) NdeI/XhoI cloning); made in house; host or cells: Escherichia coli BL21(DE3) carrying pUB520
T5 sequence (Q07817 1-211 F146L limits assumed): as the sequence (Q07817 1-211 F97W limits assumed) above, with W97F, F146L counted along it
Description: as §1, §2

Bcl-xL(ΔC) A142L [6] = target: T3, Bcl-xL(ΔC) A142L; assay: Pore-forming activity, calcein release from liposomes; assay type: biochemical; conditions: Bcl-xL(ΔC) 500 nM; read-out: Pore Inhibition IC50
Description: (§3) Large unilamellar vesicles composed of 60% dioleoylphophatidylcholine and 40% dioleoylphosphatidylglycerol were prepared by the extrusion method of Mayer et al., supra. Lipid stocks, in chloroform, were mixed and dried under a stream of nitrogen gas. The lipid was resuspended by vortexing for 30 min in a solution of 40 mM calcein (Molecular Probes), 25 mM KCl, and 10 mM KOAc, pH 5.0. After 10 freeze-thaw cycles, the lipid suspension was extruded through two 0.1 μm pore diameter Nucleopore filters. Non-entrapped dye was removed by passage over a Sephadex G10 column (Amersham Biosciences). Lipid concentration was measured using the ammonium ferrothiocyanate method (Stewart, Anal. Biochem. 104:10-14, 1980).
For pore assays, recombinant truncated Bcl-2 family protein or mutant protein (Bcl-xL(ΔC)) (500 nM) was added to large unilamellar vesicles (60 μM lipid concentration) in 100 mM KCl, 10 mM KOAc, pH 5.0, and fluorescence measured (490 nm excitation, 520 nm emission) with a Fluoromax-3 spectrophotometer. […] Samples for kinetic assays were analyzed in a thermostatted cuvette at 37° C. with constant stirring. Dose responses were measured in black quartz microplates (Hellma) at room temperature. Calcein release was expressed as percentage of maximum release with detergent lysis (0.1% Triton X-100). […]

[7] = tested on: TAMH cells over-expressing Bcl-xL WT; assay: Cytotoxicity (Alamar Blue) in Bcl-xL transfectants; assay type: cell-based, murine; conditions: 24 h
Description: (§4) TAMH cells were transfected with DNA encoding each of the mutant BCl-xL proteins by lipofection (See Example 1 for method). For analysis of BCl-xL expression, 20 μg of cell protein was separated by 20% SDS-PAGE and transferred to nitrocellulose membranes. Immunodetection of BCl-xL was carried out using rabbit anti-Bcl-xL antibody and Protein A/horseradish peroxidase conjugate, followed by chemiluminescent detection. Cells were grown to about 80% confluence in 96-well plates followed by addition of 100 μl of 2X AA1 or staurosporine (STS) solution in complete medium. STS is a natural product originally isolated from the bacterium Streptomyces and found to be capable of inducing apoptosis in certain cells and which induction of apoptosis could be blocked by the expression of a Bcl-2 family protein. Cell viability was determined spectrophotometrically after 24 h treatment as the ratio of reduced and oxidized Alamar Blue (BIOSOURCE) at 570 nm and 600 nm, respectively. All results were normalized against DMSO controls. LD50 values were calculated by non-linear regression analysis using Prism software (Graphpad).

[8] = tested on: TAMH cells over-expressing Bcl-xL F146L; assay: Cytotoxicity (Alamar Blue) in Bcl-xL transfectants; assay type: cell-based, murine
Description: as §4

[9] = tested on: TAMH cells over-expressing Bcl-xL A142L; assay: Cytotoxicity (Alamar Blue) in Bcl-xL transfectants; assay type: cell-based, murine
Description: as §4

[10] = tested on: TAMH cells over-expressing Bcl-xL F97W; assay: Cytotoxicity (Alamar Blue) in Bcl-xL transfectants; assay type: cell-based, murine; conditions: 24 h
Description: as §4

[11] = tested on: TAMH cells over-expressing Bcl-xL E92L; assay: Cytotoxicity (Alamar Blue) in Bcl-xL transfectants; assay type: cell-based, murine; conditions: 24 h
Description: as §4

Bcl-xL(ΔC) E92L [12] = target: T1, Bcl-xL(ΔC) E92L; assay: Pore-forming activity, calcein release from liposomes; assay type: biochemical; conditions: Bcl-xL(ΔC) 500 nM; read-out: Pore Inhibition IC50
Description: as §3
(§5) For pore assays, recombinant truncated Bcl-2 family protein or mutant protein (Bcl-xL(ΔC)) (500 nM) was added to large unilamellar vesicles (60 μM lipid concentration) in 100 mM KCl, 10 mM KOAc, pH 5.0, and fluorescence measured (490 nm excitation, 520 nm emission) with a Fluoromax-3 spectrophotometer. Peptides of the BH3 domain were incubated with the BCl-xL(ΔC) 5 min prior to mixing with liposomes. AA1 was added to liposomes 1 min before adding the Bcl-xL(ΔC) protein. Samples for kinetic assays were analyzed in a thermostatted cuvette at 37° C. with constant stirring. Dose responses were measured in black quartz microplates (Hellma) at room temperature. Calcein release was expressed as percentage of maximum release with detergent lysis (0.1% Triton X-100).

Bcl-xL(ΔC) F97W [13] = target: T2, Bcl-xL(ΔC) F97W; assay: as above; assay type: biochemical; conditions: Bcl-xL(ΔC) 500 nM; read-out: Pore Inhibition IC50
Description: as §3, §5

Bcl-xL(ΔC) WT [14] = target: T4, Bcl-xL(ΔC) WT; assay: as above; assay type: biochemical
Description: as §3, §5

Bcl-xL(ΔC) F146L [15] = target: T5, Bcl-xL(ΔC) F146L; assay: as above; assay type: biochemical; conditions: Bcl-xL(ΔC) 500 nM; read-out: Pore Inhibition IC50
Description: as §3, §5

[16] = AA1 200 nM or FITC-labeled BH3 peptide 25 nM, read-out: Dissociation Constant KD

T1 sequence (Q07817 1-211 E92L limits assumed): as the sequence (Q07817 1-211 F97W limits assumed) above, with E92L, W97F counted along it

## CCCCCC[C@H]1C(=O)O[C@H](C)[C@H](NC(=O)c2cccc(NC=O)c2O)C(=O)O[C@@H](C)[C@@H]1OC(=O)CC(C)C [antimycin A1]
Bcl-xL(ΔC) E92L [1]
  Kd: 5.06 ± 0.86 µM
Bcl-xL(ΔC) F97W [2]
  increase in Kd compared with Bcl-xL wt(ΔC): 8 fold
Bcl-xL(ΔC) F97W [2]; [16]
  Kd: 17.6 ± 5.2 µM
Bcl-xL(ΔC) A142L [3]
  increase in Kd compared with Bcl-xL wt(ΔC): 20 fold
Bcl-xL(ΔC) A142L [3]; [16]
  Kd: 41.8 ± 21.4 µM
Bcl-xL(ΔC) WT [4]
  Kd: 2.36 ± 1.41 µM
Bcl-xL(ΔC) F146L [5]
  decrease in affinity: ~10 fold
Bcl-xL(ΔC) F146L [5]; [16]
  Kd: 20 ± 9.4 µM
Bcl-xL(ΔC) A142L [6]
  IC50: 4.1 ± 1.24 µM
[7]
  Cytotoxicity LD50: 0.47 µM
[7]; listed as AA1
  Cytotoxicity LD50: 0.47 ± 0.07^ μM
[8]
  sensitivity to antimycin A1: completely insensitive
[8]; 24 h
  Cytotoxicity LD50: >10 µM
[9]
  sensitivity to antimycin A1: completely insensitive
[9]; 24 h
  Cytotoxicity LD50: >10 µM
[10]
  Cytotoxicity LD50: 5.12 ± 0.9 µM
[10]; listed as AA1
  Cytotoxicity LD50: 5.12 ± 0.94^2 μM
[11]
  Cytotoxicity LD50: 1.72 ± 0.3 µM
[11]; listed as AA1
  Cytotoxicity LD50: 1.72 ± 0.34^2 μM
Bcl-xL(ΔC) E92L [12]
  IC50: 2.47 ± 0.3 µM
Bcl-xL(ΔC) F97W [13]
  IC50: 3.45 ± 0.34 µM
Bcl-xL(ΔC) WT [14]
  effect on Bcl-xL pore-forming activity: inhibited
Bcl-xL(ΔC) WT [14]; Bcl-xL(ΔC) 500 nM, read-out: Pore Inhibition IC50
  IC50: 2.03 ± 0.24 µM
Bcl-xL(ΔC) F146L [15]
  IC50: 3.6 ± 0.4 µM
